According to patent publication US6680070B1, “Particulate blends and compacted products formed therefrom, and the preparation thereof” (Albemarle Corporation, priority 2000, dated 2004):
“And” between values parts separate entries of the source, which are not always exact repeats. Equal values may be shown once. Each block holds one compound with its values, some of them ahead of it.

Experiments:
[1] = Large tablet compaction, 2.5-inch punch and die, Carver Press; conditions: 63.8 g, 2.5-inch die, 5000 psi, no dwell time, silicone oil lubricant
[2] = Granulation through Chilsonator breaker and screens; assay type: physicochemical; conditions: Chilsonator breaker, screens U.S. mesh 12 to 18
Experimental: The mixing time was 60 minutes in each case. […] The mixing time was 240 minutes. Each blend was passed through a Chilsonator® breaker (The Fitzpatrick Company, Elmhurst, Ill.) and a set of screens to produce compacted granules of U.S. mesh size 12 to 18. […] Instead, the unblended material exiting the Chilsonator® was mostly loose powder.

[3] = Storage stability at 50° C., wt % active bromine by iodometric titration; assay type: physicochemical
Description: Three more samples of the blend (5 g each) were compacted in the same manner, and each time a single tablet was extracted from the die after the pressure had been released. The tablets were manually broken into two equally-sized pieces. One half of each tablet was crushed into a powder with a mortar and pestle, and the powder was titrated using the standard, well-known, iodometric method with a starch indicator to determine the wt % of active bromine. The other half of each tablet was placed in a sealed glass vial and placed in an oven at 50° C. After 30 days, the samples were removed from the oven, ground up, and titrated to determine its wt % of active bromine using the same analytical method.

[4] = Compaction test: tablet pressed in die, visual observation on extraction; assay type: physicochemical; conditions: 0.71 inch die, 5000 psi, no dwell time, die dusted with MICROPRO 400; listed as control sample
[5] = Crush strength test (Sintech 1/S compression apparatus); assay type: physicochemical; conditions: Table 8, no binder; for Crush Strength (force at breaking point), single tablet / Crush Strength per inch thickness, single tablet: 5 g, 5000 psi, aged 6 days at room temperature
Description: In each test, tablets made from 5 g of blended material were used. […] The apparatus includes a horizontal circular-shaped load cell interfaced with a computer, a digital micrometer also interfaced with the computer, and a vertical screw-driven piston that is disposed above the load cell and adapted to apply a downward force perpendicular to the load cell. The procedure for measuring crush strength involves measuring the thickness of the tablet with the micrometer to provide a digitized input to the computer. Next the tablet is placed on its edge on the load cell with the piston in contact with the upper edge of the tablet. Then the apparatus is activated whereby the piston commences applying a progressively increasing downward diametral force to the tablet. At the same time, the load cell continuously measures the downward force being applied to the tablet, and the input of such measurements is transmitted to the computer. When the force being applied reaches the point where the amount of force suddenly decreases to 10% of the immediately preceding force, the tablet has reached the breaking point, and the application of the force is immediately terminated by the software program. From the inputs to the computer, two values are provided, namely the pounds of force at the breaking point of the tablet, and the pounds of force per inch thickness of the tablet at the breaking point. Thus the greater the force applied, the greater the crush strength. […] When the compacted article is in a form other than a cylindrical tablet (e.g., a granule, caplet, briquette, or puck), the article being tested is to be positioned on the load cell and under the screw-driven piston with the longest axis of the article in the vertical position. In addition, the micrometer is used to measure the thickest portion of the article when the article is positioned on the load cell and under the screw-driven piston with the longest axis of the article in the vertical position.

[6] = Naproxen caplet compaction at 25,000 psi; assay type: physicochemical; conditions: imprinted stainless steel punch and die, 0.12-inch cross-sectional area
Experimental: A blend of commercially available virgin naproxen powder (Albemarle Corporation, Richmond, Va.) and micronized polyethylene wax (MPP-611; Micro Powders, Inc., Tarrytown, N.Y.) was formed. The blend contained 10 wt % of the micronized wax. Two 250 mg samples and three 318 mg samples of this blend were compacted in an imprinted stainless steel punch and die set of 0.12-inch cross-sectional area. Upon attaining a pressure of 25,000 psi, the pressure was released. […] The caplets were shiny and free of edge-burrs and surface defects. The imprinted lettering from the top punch was clearly impressed into the caplets.
Instead, as the punches were separated, approximately half of the naproxen had stuck to the top punch and the remainder had stuck to the bottom punch.

SMILES: CC1(C)C(=O)N(Br)C(=O)N1Br
Observations (large tablet on extraction from die) [1]: Intact tablet exhibiting

SMILES: CC1(C)C(=O)N(Br)C(=O)N1Br [DBDMH - without wax binder]
Compaction into granules [2]: did not compact and form granules | Observations (large tablet on extraction from die) ([1]; listed as Commercial sample without binder): Tablet delaminates | Wt % Active Bromine, Initial ([3]; half tablet crushed, iodometric titration): 55.3 Wt % | Wt % Active Bromine, After 30 days ([3]; half tablet in sealed glass vial, oven at 50° C., 30 days): 55.2 Wt % | Observations (tablet on extraction from die) [4]: not possible to extract a single tablet from the die

SMILES: COc1ccc2cc([C@H](C)C(=O)O)ccc2c1 [naproxen]
Caplet formation [6]: No unbroken caplet of naproxen could be produced

Now from value to compound, other results behind:

Crush Strength (force at breaking point), average of set ([5]; listed as A): 22.4 lb. | Crush Strength per inch thickness, average of set ([5]; listed as A): 61.3 lb./in.
SMILES: CC1(C)C(=O)N(Br)C(=O)N1Br [Set A]
Crush Strength (force at breaking point), single tablet ([5]; listed as A): 20.9 lb. and 25.5 lb. and 19.2 lb. and 22.8 lb. and 23.7 lb. | Crush Strength per inch thickness, single tablet ([5]; listed as A): 57.3 lb./in. and 69.5 lb./in. and 52.5 lb./in. and 62.1 lb./in. and 65.0 lb./in.

Crush Strength (force at breaking point), single tablet ([5]; listed as B): 10.7 lb. and 12.8 lb. and 9.8 lb. | Crush Strength (force at breaking point), average of set ([5]; listed as B): 11.1 lb. | Crush Strength per inch thickness, average of set ([5]; listed as B): 31.5 lb./in.
SMILES: CC1(C)C(=O)N(Br)C(=O)N1Br [Set B]
Crush Strength per inch thickness, single tablet ([5]; listed as B): 30.4 lb./in. and 36.4 lb./in. and 27.8 lb./in.
